Data from article PMC5563080, “The High-Affinity Interaction between ORC and DNA that Is Required for Replication Licensing Is Inhibited by 2-Arylquinolin-4-Amines” (Cell Chemical Biology, 2017).
pIC50: −log10 of the molar value.

System: U2OS
Assay: cells
Set-up: Inhibition of MCM4 chromatin loading (replication licensing) in synchronised U2OS cells, immunofluorescence high-content imaging
Settings: Homo sapiens, 8 h, MCM4 DNA binding
Protocol: We used these changes to design a high-throughput assay for licensing inhibitors (Figure 1B). Human U2OS cells were released into S phase from a double-thymidine block (Figures S1A–S1C) and then treated with RO3306, a CDK1 inhibitor, to reversibly block them in G2 (Figure S1D). RO3306 was removed and cells were seeded into 384-well plates containing test compounds (Figure S1E). Eight hours later, when cells should have passed through mitosis and loaded MCM2–7, cells were fixed and immunostained for DNA-bound MCM4 and also treated with DAPI to stain total DNA (Figure S1F). Microscopic images of each treatment (Figures 1C and 1D) were taken on an InCell 1000 system, which returned values for MCM4 and DNA content for each of the cells identified. To avoid any confounding effects of RO3306 treatment, we then retested these 280 compounds using a low-throughput screen whereby cells were synchronized by mitotic shake-off prior to exposure with test compounds. This low-throughput assay also has the advantage of removing cells that suffer non-specific inhibition by test compounds, as only metabolically active cells can re-adhere to the plates. Sixteen compounds produced a reproducible reduction (>60%) of DNA-bound MCM4 in this assay. These 16 compounds fell into eight discrete chemical families, which we named RL1 to RL8. After resynthesis and re-assay, we decided to take 12 of these 16 compounds forward for further study: RL1a, RL1b, RL2, RL3a, RL3b, RL4, RL5a–RL5e, and RL8. […] Microscopic images (6 fields / well) of each treatment were taken on an InCell 1000 system (GE healthcare) using a 20x objective. ActivityBase from ID Business Solutions was used for the data processing and analysis, returning values for Mcm4 and DNA content for each of the cells identified. Figure S6 details the plate maps used for the assay. A Quality Control plate was included for every three assay plates (Figure S6), where columns 1-12 were low control wells (+ R03306 + 1% DMSO) and columns 13-24 were high control well (+Media + 1% DMSO). The performance of the assay on each screening plate was evaluated using internal controls. The criteria for data acceptance of an assay plate were signal to background (mean Hi Control) / (mean Lo Control) >1.5; Z-prime (1 - (3 x Lo Control Standard Deviation + 3 x SD Hi Control Standard Deviation) / (mean Hi Control - mean Lo Control)) >0.3. The statistics from all assay plates and Quality Control plates were analysed. The screen performance indicators were: signal to background 2.4±0.53 and Z-prime 0.47±0.10.

| SMILES | pIC50 |
| --- | --- |
| CN(C)CCNc1cc(-c2ccco2)nc2ccccc12 [RL5a] | 5.10 |
| CN(C)CCNc1cc(-c2cccs2)nc2ccccc12 [RL5b] | 4.66 |
| CCN(CC)CCNc1nc(-c2cccc(Cl)c2)nc2ccccc12 [RL5d] | 4.49 |

More lines, in order of rising pIC50, values ahead:

| pIC50 | SMILES |
| --- | --- |
| 4.23 | CN(C)CCNc1nc(-c2ccncc2)nc2ccccc12 [RL5c] |
| 5.15 | Cc1c(C)n(-c2nc3ccccc3s2)c2ncnc(NCCN(C)C)c12 [RL5e] |
